Among the data in US11352320B2 (Merck Sharp & Dohme Corp., priority 2018, dated 2022) are IC50 values, retold here.

The target of the test is IDO1 (Homo sapiens, UniProt P14902). The test is described as follows: IDO1 Cellular Assay in Hela Cells Stimulated with IFNγ. The test is classed as cell-based. More on the design: endogenous in cells; host or cells: HeLa cells stimulated with IFNγ. Particulars: IFNγ 100 ng/mL, 300 uM L-tryptophan, about 48 hours, fluorescence readout, read-out: IDO1 HELA Cell Assay, IC50. The protocol: Biological Assays IDO1 Cellular Assay in Hela Cells Stimulated with IFNγ
Sequence of IDO1 (P14902 whole entry): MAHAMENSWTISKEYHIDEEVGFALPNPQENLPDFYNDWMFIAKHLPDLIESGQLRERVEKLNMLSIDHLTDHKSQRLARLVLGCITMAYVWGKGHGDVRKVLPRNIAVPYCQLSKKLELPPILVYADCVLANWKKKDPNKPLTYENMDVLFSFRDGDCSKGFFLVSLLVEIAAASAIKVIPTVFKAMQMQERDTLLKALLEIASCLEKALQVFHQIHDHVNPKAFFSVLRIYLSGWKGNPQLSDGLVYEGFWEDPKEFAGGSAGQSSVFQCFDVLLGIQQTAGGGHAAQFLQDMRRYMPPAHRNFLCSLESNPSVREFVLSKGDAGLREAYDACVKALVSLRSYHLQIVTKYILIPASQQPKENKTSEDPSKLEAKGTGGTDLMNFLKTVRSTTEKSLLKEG
Hela cells were cultured in complete Hela culture medium (90% EMEM, 10% heat-inactivated fetal bovine serum) and expanded to about 1×10^9 cells. The cells were then collected and frozen down at 1×10^7 cells/vial in 1 mL frozen medium (90% complete Hela culture medium, 10% DMSO)
Compounds to be tested were serially diluted in ten 3-fold steps in DMSO starting from 10 mM DMSO stocks in Echo low volume plate(s). Compound dilutions or DMSO alone were then dispensed from the dilution plate(s) into Greiner black 384-well assay plate(s) (catalog #781086, 50 nL/well) using an Echo 550 acoustic liquid handler (Labcyte).
Frozen Hela cells were thawed and transferred into Hela assay medium (99% complete Hela culture medium, 1% Pen/Strep) with 20 mL medium/vial of cells. The cells were spun down at 250 g in a table top centrifuge for 5 min and suspended in same volume of Hela assay medium. The cells were then counted and adjusted to a density of 2×10^5 cells/ml in Hela assay medium. Sterile L-tryptophan were added to the cells with final concentration of 300 uM L-tryptophan. A small aliquot (2 mL/plate) of Hela cells were set aside and were not treated with IFNγ, to serve as the Max-E control. The rest of Hela cells were added with sterile IFNγ (Cat #285-IF, R & D systems) with a final concentration of 100 ng/mL.
Hela cells with and without IFNγ were dispensed to the respective wells of 384-well assay plates containing the compounds. The plates were incubated for about 48 hours at a 37° C., 5% CO2 incubator. Afterwards, 12 μL of 0.5 M methyl isonipecotate in dimethyl sulfoxide were added into each well and the plates were sealed and incubated at 37° C. without CO2 overnight. The plates were centrifuged for 1 min at 200×g. The resulting fluorescence was measured in a Spectramax plate reader (Molecular Devices) with a 400 nm excitation filter and a 510 nm emission filter.
The fluorescence intensity of each well was corrected for the background observed in wells with non-IFNγ-treated cells and was expressed as a fraction of the intensity observed in wells of IFNγ-treated cells and DMSO only. Potencies were calculated by linear least squares fit to the four parameter logistic IC50 equation.
Compounds disclosed herein generally have IC50 of about 1 nM to about 1,000 nM, or more specifically, about 2 nM to about 800 nM, or more specifically, about 5 nM to about 600 nM, or still more specifically, about 10 nM to about 500 nM. Such a result is indicative of the intrinsic activity of the compounds in use as an inhibitor of an IDO enzyme.
What is called IC50 is the midpoint of a concentration-inhibition curve. Turning to `Cc1nccc(NC23CC(C(C)C(=O)Nc4ccc(Cl)cc4)(C2)C3)n1` (racemic) [Example 1, N-(4-chlorophenyl)-2-(3-((2-methylpyrimidin-4-yl)amino)bicyclo[1.1.1]pentan-1-yl)propanamide], the IC50 is 33.3 nM. With `Cc1nccc(NC23CC([C@H](C)C(=O)Nc4ccc(Cl)cc4)(C2)C3)n1` (single isomer, unassigned) [Example 2, N-(4-chlorophenyl)-2-(3-((2-methylpyrimidin-4-yl)amino)bicyclo[1.1.1]pentan-1-yl)propanamide] the figure was 33.3 nM. As for `Cc1nccc(NC23CC([C@H](C)C(=O)Nc4ccc(Cl)cc4)(C2)C3)n1` (single isomer, unassigned) [Example 3, N-(4-chlorophenyl)-2-(3-((2-methylpyrimidin-4-yl)amino)bicyclo[1.1.1]pentan-1-yl)propanamide], the figure is 428 nM; as for `CC(C(=O)Nc1ccc(F)cc1)C12CC(Nc3ncnc4ccccc34)(C1)C2` (single isomer, unassigned) [Example 4, N-(4-fluorophenyl)-2-(3-(quinazolin-4-ylamino)bicyclo[1.1.1]pentan-1-yl)propanamide], 388 nM.

Consider `Cc1nc(NC23CC(C(C)C(=O)Nc4ccc(F)cc4)(C2)C3)c2cc(F)ccc2n1` (single isomer, unassigned) [Example 6], for which the IC50 stood at 590 nM.

`Cc1nc(NC23CC(C(C)C(=O)Nc4ccc(F)cc4)(C2)C3)c2cc(F)ccc2n1` (single isomer, unassigned) [Example 7]: the IC50 was found to be 17.7 nM. As for `CC(C(=O)Nc1ccc(F)cc1)C12CC(Nc3nc(Cl)nc4c3CCC4)(C1)C2` (single isomer, unassigned) [Example 8, 2-(3-((2-chloro-6,7-dihydro-5H-cyclopenta[d]pyrimidin-4-yl)amino)bicyclo[1.1.1]pentan-1-yl)-N-(4-fluorophenyl)propanamide], the figure is 330 nM; as for `CC(C(=O)Nc1ccc(F)cc1)C12CC(Nc3nc(Cl)nc4c3CCC4)(C1)C2` (single isomer, unassigned) [Example 9, 2-(3-((2-chloro-6,7-dihydro-5H-cyclopenta[d]pyrimidin-4-yl)amino)bicyclo[1.1.1]pentan-1-yl)-N-(4-fluorophenyl)propanamide], 11.1 nM; as for `CC(C(=O)Nc1ccc(F)cc1)C12CC(Nc3ncnc4ccc(F)cc34)(C1)C2` (single isomer, unassigned) [Example 10, N-(4-fluorophenyl)-2-(3-((6-fluoroquinazolin-4-yl)amino)bicyclo[1.1.1]pentan-1-yl)propanamide], 208 nM. In the case of `CC(C(=O)Nc1ccc(F)cc1)C12CC(Nc3nccc4cccnc34)(C1)C2` (stereo not shown) [Example 12, N-(4-fluorophenyl)-2-{3-[(1,7-naphthyridin-8-yl)amino]bicyclo[1.1.1]pentan-1-yl}propanamide], the IC50 amounted to 587 nM.

Regarding `CC(C(=O)Nc1ccc(F)cc1)C12CC(Nc3ncc(C(F)(F)F)cc3F)(C1)C2` (stereo not shown) [Example 13, N-(4-fluorophenyl)-2-(3-{[3-fluoro-5-(trifluoromethyl)pyridin-2-yl]amino}bicyclo[1.1.1]pentan-1-yl)propanamide], the IC50 stood at 138 nM.

`Cc1nc(NC23CC(C(C)C(=O)Nc4ccc(F)cc4)(C2)C3)ccc1C(F)(F)F` (stereo not shown) [Example 14, N-(4-fluorophenyl)-2-(3-{[6-methyl-5-(trifluoromethyl)pyridin-2-yl]amino}bicyclo[1.1.1]pentan-1-yl)propanamide]: the IC50 amounted to 52.4 nM. On to `CC(C(=O)Nc1ccc(F)cc1)C12CC(Nc3ccc(C(F)(F)F)cn3)(C1)C2` (stereo not shown) [Example 15, N-(4-fluorophenyl)-2-(3-{[5-(trifluoromethyl)pyridin-2-yl]amino}bicyclo[1.1.1]pentan-1-yl)propanamide], for which the IC50 is 79 nM. In the case of `CC(C(=O)Nc1ccc(F)cc1)C12CC(Nc3cc(C(F)(F)F)ncn3)(C1)C2` (stereo not shown) [Example 16, N-(4-fluorophenyl)-2-(3-{[6-(trifluoromethyl)pyrimidin-4-yl]amino}bicyclo[1.1.1]pentan-1-yl)propanamide], the IC50 worked out at 27.2 nM. As for `CC(C(=O)Nc1ccc(F)cc1)C12CC(Nc3nccc(C(F)(F)F)c3C#N)(C1)C2` (stereo not shown) [Example 17, 2-(3-{[3-cyano-4-(trifluoromethyl)pyridin-2-yl]amino}bicyclo[1.1.1]pentan-1-yl)-N-(4-fluorophenyl]propanamide], the figure is 27.2 nM. In the case of `CC(C(=O)Nc1ccc(F)cc1)C12CC(Nc3cc(C(F)(F)F)ccn3)(C1)C2` (stereo not shown) [Example 18, N-(4-fluorophenyl)-2-(3-{[4-(trifluoromethyl)pyridin-2-yl]amino}bicyclo[1.1.1]pentan-1-yl)propanamide], the IC50 came to 173 nM.

With `CC(C(=O)Nc1ccc(F)cc1)C12CC(Nc3c(C(F)(F)F)ccnc3F)(C1)C2` (stereo not shown) [Example 19, N-(4-fluorophenyl)-2-(3-{[2-fluoro-4-(trifluoromethyl)pyridin-3-yl]amino}bicyclo[1.1.1]pentan-1-yl)propanamide], the IC50 is 11.9 nM. With `CC(C(=O)Nc1ccc(F)cc1)C12CC(Nc3ncccc3C(F)(F)F)(C1)C2` (stereo not shown) [Example 20, N-(4-fluorophenyl)-2-(3-{[3-(trifluoromethyl)pyridin-2-yl]amino}bicyclo[1.1.1]pentan-1-yl)propanamide] the figure was 543 nM. As for `CC(C(=O)Nc1ccc(F)cc1)C12CC(Nc3nccnc3C(F)(F)F)(C1)C2` (stereo not shown) [Example 21, N-(4-fluorophenyl)-2-(3-{[3-(trifluoromethyl)pyrazin-2-yl]amino}bicyclo[1.1.1]pentan-1-yl)propanamide], the figure is 454 nM; as for `CC(C(=O)Nc1ccc(F)cc1)C12CC(Nc3ncc(C(F)(F)F)cc3F)(C1)C2` (stereo not shown) [Example 22, N-(4-fluorophenyl)-2-(3-{[3-fluoro-5-(trifluoromethyl)pyridin-2-yl]amino}bicyclo[1.1.1]pentan-1-yl)propanamide], 166 nM; as for `CC(C(=O)Nc1ccc(F)cc1)C12CC(Nc3nncc4ccccc34)(C1)C2` (stereo not shown) [Example 23, N-(4-fluorophenyl)-2-{3-[(phthalazin-1-yl)amino]bicyclo[1.1.1]pentan-1-yl}propanamide], 183 nM. On to `CC(C(=O)Nc1ccc(F)cc1)C12CC(Nc3ccnc(C(F)(F)F)c3)(C1)C2` (stereo not shown) [Example 24, N-(4-fluorophenyl)-2-(3-{[2-(trifluoromethyl)pyridin-4-yl]amino}bicyclo[1.1.1]pentan-1-yl)propanamide], for which the IC50 was determined as 12.6 nM. On to `CC(C(=O)Nc1ccc(F)cc1)C12CC(Nc3ccnc(C(F)(F)F)n3)(C1)C2` (stereo not shown) [Example 25, N-(4-fluorophenyl)-2-(3-{[2-(trifluoromethyl)pyrimidin-4-yl]amino}bicyclo[1.1.1]pentan-1-yl)propanamide], for which the IC50 was 94.1 nM. With `CC(C(=O)Nc1ccc(F)cc1)C12CC(Nc3cccc(C(F)(F)F)n3)(C1)C2` (stereo not shown) [Example 26, N-(4-fluorophenyl)-2-(3-{[6-(trifluoromethyl)pyridin-2-yl]amino}bicyclo[1.1.1]pentan-1-yl)propanamide] the figure was 74.3 nM.

Turning to `C[C@H](C(=O)Nc1ccc(F)cc1)C12CC(Nc3ccnc(C(F)(F)F)c3)(C1)C2` [Example 27, (S)—N-(4-fluorophenyl)-2-(3-((2-(trifluoromethyl)pyridin-4-yl)amino)bicyclo[1.1.1]pentan-1-yl)propanamide], the IC50 came out at 4.83 nM.
